{"source": "patent US20060008491A1", "about": "“Eremophilone and eremophilone derivatives for pest control” (priority 2002, published 2006)", "test_system": "Coptotermes acinaciformis", "format": "in vivo", "conditions": "HPLC fractions of steam distilled oil", "description": "A number of samples were assessed for termiticidal activity. The steam distilled oil product was separated into thirty fractions using reverse phase preparative HPLC, methanol:water (80:20). Fractions were re-analysed by GC-MS and recombined to provide eight fractions. Three fractions contained pure components, the other fractions contained mixtures of minor components of the oil. Six fractions together with the whole oil distillate, and the methanol and hexane extracts were tested on the workers of the termites Nasutitermes walkeri and Coptotermes acinaciformis as follows.\nTwenty uniform termite workers were transferred to 90 mm diam. petri dishes lined with the same diameter moistened filter paper (Whatman No 2). […]\nA 5 ml aliquot was applied to each petri dish with a Potter precision spray tower as described by Herron et al (995). The average weight of the solution sprayed on each dish was calculated to be 3.95 mg/cm^2. […] Mortality was normally recorded 24 h after treatment. […] Probit analysis was carried out for dose-mortality data and heterogeneity of regressions was determined by the Pearson chi-squared characteristic."}
{"smiles": "C=C(C)[C@@H]1CC(=O)C2=CCC[C@H](C)[C@@]2(C)C1", "note": "[EM-1, Eremophilone]", "values": [{"measurement": "termiticidal activity", "value": "significant termiticidal activity"}]}
